Experimental data reported in ChEMBL document CHEMBL1134808, “Evolution of anti-HIV drug candidates. Part 1: From alpha-anilinophenylacetamide (alpha-APA) to imidoyl thiourea (ITU)” (Bioorg Med Chem Lett, 2001).
pIC50: −log10 of the molar value. Where a name gives a salt, the structure may show the parent alone.

Tests used:
[1] = system: Human immunodeficiency virus 1; experiment: Compound potency to achieve protection of MT-4 cells from HIV-1 cytopathicity; assay type: functional, organism-based, MT4
MT4 [2] = experiment: Compound was tested for potency to achieve protection of MT-4 cells from 100I strain of HIV-1 virus; assay type: functional, cell-based; settings: Homo sapiens
MT4 [3] = experiment: Compound was tested for potency to achieve protection of MT-4 cells from LAI strain of HIV-1 virus; assay type: functional, cell-based; settings: Homo sapiens
MT4 [4] = experiment: Compound was tested for potency to achieve protection of MT-4 cells from 188L strain of HIV-1 virus; assay type: functional, cell-based; settings: Homo sapiens
MT4 [5] = experiment: Compound was tested for potency to achieve protection of MT-4 cells from 181C strain of HIV-1 virus; assay type: functional, cell-based; settings: Homo sapiens
MT4 [6] = experiment: Compound was tested for potency to achieve protection of MT-4 cells from 190A strain of HIV-1 virus; assay type: functional, cell-based; settings: Homo sapiens
MT4 [7] = experiment: Compound was tested for potency to achieve protection of MT-4 cells from 101E strain of HIV-1 virus; assay type: functional, cell-based; settings: Homo sapiens
MT4 [8] = experiment: Compound was tested for potency to achieve protection of MT-4 cells from 103N strain of HIV-1 virus; assay type: functional, cell-based; settings: Homo sapiens
MT4 [9] = experiment: Compound was tested for potency to achieve protection of MT-4 cells from 106A strain of HIV-1 virus; assay type: functional, cell-based; settings: Homo sapiens
[10] = Human immunodeficiency virus 1, MT4

| Compound | pIC50 [1, 10] | other results |
| --- | --- | --- |
| N#Cc1ccc(NC(=S)NC(=N)C2(c3c(Cl)cccc3Cl)CC2)cc1 | 5.83 | – |
| C/N=C(/Cc1c(Cl)cccc1Cl)NC(=O)Nc1ccc(C#N)cc1 | 6.67 | – |
| N#Cc1ccc(NC(=S)NC(=N)c2c(Cl)cccc2Cl)cc1 | 4.64 | – |
| CN/C(Cc1c(Cl)cccc1Cl)=N\C(S)=N\c1ccc(C#N)cc1 | 8.41 | – |
| N#Cc1ccc(N/C(S)=N/C(=N)Cc2c(F)cccc2F)cc1 | 8.22 | – |
| Cc1ccccc1CC(=N)/N=C(\S)Nc1ccc(C#N)cc1 | 7.59 | – |
| CN(/C(S)=N/C(=N)Cc1c(Cl)cccc1Cl)c1ccc(C#N)cc1 | 4.23 | – |
| NC(=O)C(Nc1ccc(Cl)cc1)c1c(Cl)cccc1Cl (stereo not given) | < 3.80 | – |
| COc1ccccc1CC(=N)/N=C(\S)Nc1ccc(C#N)cc1 | 7.52 | – |
| N#Cc1ccc(NC(=S)NC(=N)Cc2ccccc2)cc1 | 6.42 | – |
| N#Cc1ccc(NC(=S)NC(=N)Cc2cccc(Cl)c2)cc1 | 7.17 | – |
| NC(=O)C(NC(=O)c1ccccc1[N+](=O)[O-])c1c(Cl)cccc1Cl (stereo not given) | < 4.10 | – |
| NC(=O)C(Nc1ccccc1[N+](=O)[O-])c1c(Cl)cccc1Cl (stereo not given) | 7.00 | – |
| CC(C(=N)/N=C(\S)Nc1ccc(C#N)cc1)c1c(Cl)cccc1Cl (stereo not given) | 6.80 | – |
| N#Cc1ccc(NC(=S)/N=C(/Cc2c(Cl)cccc2Cl)Nc2ccccc2)cc1 | 5.88 | – |
| NC(=O)C(NC(=O)Nc1ccccc1[N+](=O)[O-])c1c(Cl)cccc1Cl (stereo not given) | < 3.49 | – |
| N#Cc1ccc(NC(=S)NC(=N)Cc2ccccc2Cl)cc1 | 7.85 | – |
| N=C(Cc1c(Cl)cccc1Cl)NC(=S)Nc1c(Cl)cc(Cl)cc1Cl | 4.37 | – |
| CCN/C(Cc1c(Cl)cccc1Cl)=N\C(S)=N\c1ccc(C#N)cc1 | 6.80 | – |
| N#Cc1ccc(NC(=S)NS(=O)(=O)Cc2c(Cl)cccc2Cl)cc1 | 4.00 | – |
| NC(=O)C(/N=C(\S)Nc1ccc(Cl)cc1)c1c(Cl)cccc1Cl (stereo not given) | 6.80 | – |
| NC(=O)C(/N=C(\S)Nc1ccccc1Cl)c1c(Cl)cccc1Cl (stereo not given) | < 4.22 | – |
| NC(=O)C(NCc1ccccc1[N+](=O)[O-])c1c(Cl)cccc1Cl (stereo not given) | < 3.60 | – |
| NC(=O)C(Nc1ccccc1Cl)c1c(Cl)cccc1Cl (stereo not given) | 6.40 | – |
| N#Cc1ccc(NC(=S)NC(=N)Cc2ccc(Cl)cc2)cc1 | 6.83 | – |
| NC(=O)C(/N=C(\S)Nc1cccc(Cl)c1)c1c(Cl)cccc1Cl (stereo not given) | 5.28 | – |
| CC(C)Nc1cccnc1N1CCN(C(=O)c2cc3cc(NS(C)(=O)=O)ccc3[nH]2)CC1 [DELAVIRDINE MESYLATE] | – | pIC50 (MT4 [2]): 5.60; pIC50 (MT4 [3]): 7.20; pIC50 (MT4 [4]): 5.90; pIC50 (MT4 [5]): 5.70; pIC50 (MT4 [6]): 7.20; pIC50 (MT4 [7]): 6.80; pIC50 (MT4 [8]): 5.60; pIC50 (MT4 [9]): 5.80 |
| CC(=O)c1ccc(C)cc1NC(C(N)=O)c1c(Cl)cccc1Cl (stereo not given) [LOVIRIDE] | – | pIC50 (MT4 [2]): 7.30; pIC50 (MT4 [3]): 7.30; pIC50 (MT4 [4]): 4.30; pIC50 (MT4 [5]): 4.80; pIC50 (MT4 [6]): 5.60; pIC50 (MT4 [7]): 7.20; pIC50 (MT4 [8]): 5.90; pIC50 (MT4 [9]): 6.00 |

The next lines start with results.

| pIC50 [1, 10] | Compound | other results |
| --- | --- | --- |
| 7.89 | N=C(Cc1c(Cl)cccc1Cl)NC(=S)Nc1ccc(Cl)cc1 | – |
| 5.10 | N#Cc1ccc(NC(=N)NC(=N)Cc2c(Cl)cccc2Cl)cc1 | – |
| 8.52 | N#Cc1ccc(NC(=S)NC(=N)Cc2c(Cl)cccc2Cl)cc1 | pIC50 (MT4 [2]): 6.29; pIC50 (MT4 [3]): 8.52; pIC50 (MT4 [4]): 6.50; pIC50 (MT4 [5]): 6.29; pIC50 (MT4 [6]): 8.70; pIC50 (MT4 [7]): 7.72; pIC50 ([1]; mt4): 8.60; pIC50 (MT4 [8]): 6.23; pIC50 (MT4 [9]): 6.42 |
| 6.16 | N=C(Cc1c(Cl)cccc1Cl)NC(=S)NCc1ccc(Cl)cc1 | – |
| 8.15 | N#Cc1ccc(NC(=S)NC(=N)Cc2ccc(Cl)cc2Cl)cc1 | – |
| 6.46 | N=C(Cc1c(Cl)cccc1Cl)NC(=S)Nc1ccc(Cl)cc1Cl | – |
| 6.28 | N#Cc1ccc(NC(=S)NC(=N)CCc2c(Cl)cccc2Cl)cc1 | – |
| 6.91 | N=C(Cc1c(Cl)cccc1Cl)NC(=S)Nc1ccccc1 | – |
| 7.82 | N#Cc1ccc(NC(=O)NC(=N)Cc2c(Cl)cccc2Cl)cc1 | – |
| 5.79 | N=C(Cc1c(Cl)cccc1Cl)NC(=S)NCCc1ccc(Cl)cc1 | – |
| 3.20 | N#Cc1ccccc1NC(=S)NC(=N)Cc1c(Cl)cccc1Cl | – |
| 6.90 | N#Cc1cccc(NC(=S)NC(=N)Cc2c(Cl)cccc2Cl)c1 | – |
| 3.20 | N#Cc1ccc(NC(=S)NC(=O)Cc2c(Cl)cccc2Cl)cc1 | – |
| 8.30 | N#Cc1ccc(NC(=S)NC(=N)Cc2c(Cl)ccc(Cl)c2Cl)cc1 | – |
